Test results: US20240058335A1, “METHODS FOR TREATMENT OF CANCER USING ABL INHIBITORS AND DRUGS TARGETING THE MEVALONATE PATHWAY” (Duke University, priority 2021, published 2024)

How the values were obtained:
[1] = tested on: lung cancer cells (PC9, PC9 GR4, H460, H358); assay: Seahorse XF Analyzer Mito Stress Test (OCR: basal respiration, maximal respiration, ATP production); format: cell-based, human; conditions: IC50 doses, 24 hours; PC9, PC9 GR4, H460, H358
Description: (FIGS. 2A-2D) Seahorse XF Analyzer Mito Stress Test analysis of mitochondrial basal respiration, maximal respiration, and ATP production as measured by changes in oxygen consumption rate (OCR). […] (FIG. 2E) Mitochondrial basal respiration, maximal respiration, and ATP production as measured by Seahorse XF Analyzer's Mito Stress Test for PC9 cells harboring shRNAs against ABL1/ABL2 (shAA) and non-targeting control (shSCR). (FIGS. 2F-2G) Mitochondrial ROS (MitoROS) release as measured by FACS analysis of median fluorescent intensity (MFI) using Mitosox probe. […] Data are mean±SEM. […] Seahorse XF Analyzer Mito Stress Test analysis of mitochondrial basal respiration, maximal respiration, and ATP production as measured by changes in oxygen consumption rate (OCR) in the indicated lung cancer cells: (FIG. 8A) PC9; (FIG. 8B) PC9 GR4; (FIG. 8C) H460. […] Doses correspond to IC50 dose for each drug in the corresponding cell line. In each graph, for each of Basal Respiration, Maximal Respiration, and ATP production, data is shown from left to right for DMSO, GNF5, and Nilotinib. […] Cells were treated with IC50 doses for 24 hours (n=3). Data are mean±SEM. […] SEAHORSE MEASUREMENTS. Basal and maximal oxygen consumption rate and ATP production were measured using a Mito Stress test Kit and XF96 Extracellular Flux Analyzer (Seahorse Bioscience), according to manufacturer's instructions. Cells were plated in XF96 plates at 10,000 cells per well on Day 0. […] The plate was incubated in a non-CO2 incubator at 37° C. for 1 hr to equilibrate.

HCC1954-LCC1 cells = assay: Intracranial injection model of HER2+ breast cancer brain metastasis; format: in vivo, mice; conditions: oral gavage
Method: Nude mice were injected intracranially with HCC1954-LCC1 cells on Day 0. On Day 10, mice were divided evenly between treatment groups (Vehicle or GNF5) based on tumor burden and weight. Tumors were monitored weekly by BLI until experimental endpoint (Day 55). (FIG. 15A) Overall survival curve of nude mice injected intracranially with HCC1954-LCC1 and treated with vehicle (n=9) or GNF5 (n=10) and representative BLI images of mice at day 33 post-injection. (FIG. 16B) Overall survival curve of nude mice injected intracranially with HCC1954-LCC1 ABL1/2 KO (n=15) or control cells (n=15) and representative of BLI images of mice at day 21 post-injection. Statistical analysis was performed using Log-rank (Mantel-Cox) test.

O=C(NCCO)c1cccc(-c2cc(Nc3ccc(OC(F)(F)F)cc3)ncn2)c1 [GNF5]
mitochondrial function (basal respiration, maximal respiration, ATP production; OCR) [1]: greatly decreased | animal survival (HCC1954-LCC1 cells): markedly increased animal survival | metastatic outgrowth and brain colonization (BLI) (HCC1954-LCC1 cells): impaired metastatic outgrowth and colonization of the brain parenchyma
